In PMC8481502, “Bovine NK-lysin peptides exert potent antimicrobial activity against multidrug-resistant Salmonella outbreak isolates” (Scientific Reports, 2021):
Peptide text beside a SMILES is read from it.

What was measured:
[1] = tested on: MDR Salmonella enterica serovar Typhimurium DT193 strain 1434 (SX231); test: Growth curve assay (automated reader, OD600) with isolate SX231; type: cell-based; details: 20 µM peptide, LB broth, 24 h growth curve
[2] = tested on: MDR Salmonella enterica serovar Heidelberg (SB395); test: Growth curve assay (automated reader, OD600) with isolate SB395; type: cell-based; details: 20 µM peptide, LB broth, 24 h growth curve
Salmonella SX238 = test: LIVE/DEAD BacLight staining, confocal laser scanning microscopy; type: cell-based, Salmonella enterica serovar I 4,[5],12:i:-; details: 5 µM peptide
Description: The viabilities of bacteria following incubation with NK2A and Sc-NK2A were determined using culture-independent (function of the membrane integrity of the bacteria) staining technique by using LIVE/DEAD™ BacLight™ bacterial viability kit (for microscopy) as described previously. Bacteria in each treatment was visualized using a Nikon A1R + laser scanning confocal microscope (Nikon Instruments, Melville, NY) as described previously. Images were obtained using plan Apo 60 × objective lens (oil) at numerical aperture 1.4. Final figures were prepared using Adobe Photoshop Elements 11.

[3] = tested on: MDR Salmonella outbreak isolate SX238 cytoplasmic membrane; test: Propidium iodide (PI) uptake assay; type: cell-based, Salmonella enterica serovar I 4,[5],12:i:-
Description: The kinetics of NK2A-induced damage to Salmonella cell membranes were evaluated using PI uptake assay as described previously. Briefly, an overnight culture of MDR Salmonella outbreak isolate SX238 was centrifuged, washed with PBS, and resuspended in PBS. Ninety microliters of bacterial suspension was transferred to a 96-well opaque plate (~ 1 × 10^7 CFU/well), mixed with 10 µL of PI (final concentration = 3 µM) and incubated at 37 °C for 5 min. PBS, polymyxin B (2, 4, 25, 50 and 100 µg/mL), NK2A or Sc-NK2A (both at 2 and 5 µM) were added and PI fluorescent intensities in each well was continuously measured (15 s intervals, flex mode) using a FlexStation 3 multi-mode (fluorescent) microplate reader (Molecular Devices LLC., San Jose, CA) for up to 6 h. The excitation and emission wavelengths for PI was set up at 530 nm and 620 nm, respectively.

[4] = tested on: Salmonella enterica serovar Typhimurium isolate UK-1 (SB377, non-MDR); test: Growth curve assay (automated reader, OD600) with isolate SB377; type: cell-based; details: for growth inhibition activity on SB377 at highest tested concentration: up to 20 µM peptide, 24 h growth curve; for time at which bacteria recovered and grew after initial inhibition: SB377, LB broth
Description: (§1) Overnight cultures of a MDR Salmonella outbreak isolate (SX238) and one non-MDR Salmonella isolate (SB377) were diluted 1:1000 in LB broth to obtain approximately 1 × 10^6 colony forming units per milliliter (CFU/mL). One hundred microliters of each diluted culture were transferred into honeycomb® 100-well plates (~ 1 × 10^5 CFU/well) (Growth Curves USA, Piscataway, NJ). Bovine NK-lysin peptides (NK1, NK2A, NK2B, and NK2C) were added at the final peptide concentrations of 20, 10, 5, 3.5, 2 µM in PBS (total volume = 20 µL) with a final bacterial-peptide volume of 120 µL/well. The plates were covered with lids and placed in an automated growth curve reader (Bioscreen C; Growth Curves USA, Piscataway, NJ) which was programmed for continuous shaking at 37 °C, and optical density readings at 600 nm (OD600) were recorded every hour for 24 h. […] The optical density data were analyzed, and growth curve graphs for each isolate were generated using MS Excel. […] Twenty-four-hour growth curve assays for Salmonella isolate SX238 were repeated at different bacterial CFU (~ 1 × 10^5, 1 × 10^6, 1 × 10^7, and 1 × 10^8 CFU/mL) with NK2A (5 µM and 10 µM). Sc-NK2A was included as a control for the assay.

Swiss-Webster mice = test: Mouse study of in vivo cytotoxic effects; details: single intraperitoneal dose 100 µg (~ 4 mg/kg) in PBS, female Swiss-Webster mice, 5 per cage, 2-week observation
Description: To determine whether NK-lysin peptides show in vivo cytotoxic effects, a mouse study was conducted. Briefly, thirty 5–6 weeks old female Swiss-Webster mice (Envigo, Indianapolis, IN) were housed in groups in six individual cages (5 mice per cage) in ABSL2 facilities with ad libitum access to food and water in a 12-h light:dark cycle. After 1 week of acclimation, mice were intraperitoneally injected with a single dose of 100 µg of NK-lysin peptides (NK1, NK2A, NK2B, NK2C, or Sc-NK2A, ~ 4 mg/kg of body weight) in PBS (1 mL). Mice injected with PBS (1 mL) served as a negative control for the study. Mice were daily observed for any signs of toxicity and were euthanized 2 weeks post peptide administration.

[5] = tested on: MDR Salmonella enterica serovar I 4,[5],12:i:- strain USDA15WA-1 (SX238); test: Growth curve assay (automated reader, OD600) with isolate SX238; type: cell-based; details: for growth inhibition activity on SX238 at highest tested concentration: up to 20 µM peptide, 24 h growth curve; for time at which bacteria recovered and grew after initial inhibition: SX238, LB broth
Description: as §1

[6] = tested on: Salmonella SX238 outer- and inner-membranes; test: Transmission electron microscopy of peptide-treated bacteria; type: cell-based, Salmonella enterica serovar I 4,[5],12:i:-; details: 20 µM peptide, 1 h at 37 °C, ~1 × 10^7 CFU/well in PBS
Description: Morphological changes of bacteria following incubation with NK2A and Sc-NK2A peptides were studied by TEM. An overnight culture of Salmonella (isolate SX238) was centrifuged and resuspended in PBS. One hundred microliters of bacterial suspension were placed in a Honeycomb plate (~ 1 × 10^7 CFU/well) and NK2A, Sc-NK2A (20 µM), and PBS were added and incubated at 37 °C with continuous shaking for 1 h. The bacterial suspensions were mixed with an equal volume of 3% glutaraldehyde in 0.1 M cacodylate buffer (pH 7.4) and processed for TEM as described before. Sections were examined with a FEI Tecnai G2 Biotwin (FEI Co., Hillboro, OR) TEM and images were taken with Advanced Microscopy Technologies (AMT Inc., Danvers, […]) imaging camera.

[7] = tested on: Salmonella isolates (MDR and non-MDR); test: Growth curve assay, statements over all Salmonella isolates; type: cell-based; details: 24 h incubation in LB broth, MDR and non-MDR isolates
Description: as §1

CC[C@H](C)[C@H](NC(=O)[C@H](CCSC)NC(=O)[C@H](CS)NC(=O)[C@H](CCCNC(=N)N)NC(=O)[C@H](CCC(=O)O)NC(=O)[C@H](CCCCN)NC(=O)[C@H](CCCCN)NC(=O)[C@H](CS)NC(=O)[C@H](CCCCN)NC(=O)[C@H](CO)NC(=O)[C@H](CCCCN)NC(=O)CNC(=O)[C@@H](NC(=O)[C@H](CC(C)C)NC(=O)[C@H](CCCNC(=N)N)NC(=O)[C@@H](NC(=O)[C@@H](NC(=O)[C@H](C)NC(=O)[C@H](CC(C)C)NC(=O)[C@H](CO)NC(=O)[C@H](CC(C)C)NC(=O)[C@H](CO)NC(=O)[C@@H](NC(=O)[C@H](Cc1ccccc1)NC(=O)[C@@H](N)CCSC)C(C)C)[C@@H](C)O)[C@@H](C)CC)[C@@H](C)O)C(=O)N[C@@H](CC(C)C)C(=O)N[C@@H](CCCCN)C(=O)N[C@@H](CCCNC(=N)N)C(=O)N[C@@H](CCCNC(=N)N)C(=O)N[C@H](C(=O)O)C(C)C [Sc-NK2A] (H-MFVSLSLATIRLTGKSKCKKERCMILKRRV-OH; N-terminus and C-terminus assumed)
growth inhibition activity on SX231 at highest tested concentration [1]: failed to show Salmonella growth inhibition activity | growth inhibition activity on SB395 at highest tested concentration [2]: failed to show Salmonella growth inhibition activity | live/dead staining result (SYTO 9 / PI) (Salmonella SX238): did not have detectable antimicrobial activity | PI uptake signal ([3]; 5 µM peptide, 30 min, ~1 × 10^7 CFU/well in PBS, 3 µM PI): did not show PI uptake signals | growth inhibition activity on SB377 at highest tested concentration ([4]; LB broth): failed to show Salmonella growth inhibition activity | signs of toxicity or death (Swiss-Webster mice): did not show signs of toxicity or death | growth inhibition of SX238 at the lowest bacterial concentration ([5]; 10 µM peptide, 10^4 CFU/well): failed to inhibit bacterial growth | growth inhibition activity on SX238 at highest tested concentration ([5]; LB broth): failed to show Salmonella growth inhibition activity | ultrastructural changes to bacterial membranes [6]: did not cause detectable damage to the bacterial membranes

TVIEAASKVCGKMGPLKGLCKSITKRFLRR [NK2B, 30-mer peptide corresponding to functional region helices 2-loop-3 of bovine NK-lysin NK2B]
concentrations able to inhibit growth of Salmonella during 24 h [7]: 3.5 to 5 µM | peptide concentration at which growth of SB377 was completely inhibited ([4]; LB broth, ~1 × 10^5 CFU/well, 37 °C, OD600 every hour for 24 h, tested 2-20 µM): ≥ 5 µM | signs of toxicity or death (Swiss-Webster mice): did not show signs of toxicity or death | peptide concentration at which growth of SX238 was completely inhibited ([5]; LB broth, ~1 × 10^5 CFU/well, 37 °C, OD600 every hour for 24 h, tested 2-20 µM, at least three experiments): ≥ 5 µM

TVIEEASKVCSKMRLLKGLCKSIMKKFLRT [NK2C, 30-mer peptide corresponding to functional region helices 2-loop-3 of bovine NK-lysin NK2C]
time at which bacteria recovered and grew after initial inhibition ([4]; 10 µM peptide): approximately 7 h | time at which bacteria recovered and grew after initial inhibition ([4]; 20 µM peptide): ~20 h | signs of toxicity or death (Swiss-Webster mice): did not show signs of toxicity or death | time at which bacteria recovered and grew after initial inhibition ([5]; 10 µM peptide): approximately 7 h | time at which bacteria recovered and grew after initial inhibition ([5]; 20 µM peptide): ~20 h

VIIHVTSKVCSKMGLWSILCNQMMKKYLNR [NK1, 30-mer peptide corresponding to functional region helices 2-loop-3 of bovine NK-lysin NK1]
growth inhibition activity on SB377 at highest tested concentration ([4]; LB broth): did not show any Salmonella SX238 and SB377 growth inhibition activity | signs of toxicity or death (Swiss-Webster mice): did not show signs of toxicity or death | growth inhibition activity on SX238 at highest tested concentration ([5]; LB broth): did not show any Salmonella SX238 and SB377 growth inhibition activity

polymyxin B [reference compound]
PI uptake signal ([3]; polymyxin B 2-100 µg/mL, 6 h observation): No PI uptake signal was observed | PI uptake signal ([3]; polymyxin B up to 100 µg/mL, 30 min observation): No PI uptake signal was observed
